Measurements reported in the CombiSolv-Exp solvation set (Vermeire and Green 2021).

Test: solvent given as SMILES

C[N+](=O)[O-]
Settings	solvation free energy, 298 K [kcal/mol]
in Brc1ccccc1	-4.19
in C1CCCCC1	-2.81
in C1CCOC1	-5.04
in C1COCCO1	-5.08
in CC1COC(=O)O1	-5.38
in CC#N	-5.63
in CC(=O)N(C)C	-5.52
in CC(=O)O	-4.86
in CC(=O)c1ccccc1	-4.89
in CC(C)(C)O	-3.79
in CC(C)=O	-5.32
in CC(C)CC(C)(C)C	-2.74
in CC(C)CCCC(C)CCCC(C)CCCCC(C)CCCC(C)CCCC(C)C	-2.56
in CC(C)CCO	-3.74
in CC(C)O	-3.92
in CC(C)OC(C)C	-3.87
in CC(Cl)Cl	-4.84
in CCBr	-4.49
in CCC(C)=O	-5.11
in CCCC#N	-5.07
in CCCCC	-2.7
in CCCCCC	-2.8
in CCCCCCC	-2.62
in CCCCCCCC	-2.62
in CCCCCCCCCC	-2.69
in CCCCCCCCCCCCCCCC	-2.52
in CCCCCCCCO	-3.49
in CCCCCl	-4.07
in CCCCO	-3.88
in CCCCOCCCC	-3.57
in CCCO	-3.94
in CCN(CC)CC	-3.55
in CCO	-4.26
in CCOC(C)=O	-4.96
in CCOCC	-4.21
in CCOCCOCCOCC	-4.91
in CCOc1ccccc1	-4.39
in CN1CCCC1=O	-5.53
in CN(C)C=O	-5.58
in CN(C)P(=O)(N(C)C)N(C)C	-5.68
in CNC=O	-5.14
in CO	-4.66
in COC(C)=O	-5.13
in COCCO	-5
in COc1ccccc1	-4.65
in CS(C)=O	-5.63
in Cc1ccc(C)cc1	-4.13
in Cc1cccc(C)n1	-4.67
in Cc1cccc(O)c1	-4.68
in Cc1ccccc1	-4.27
in Cc1ccccn1	-4.88
in ClC(Cl)(Cl)Cl	-3.49
in ClC(Cl)Cl	-4.64
in ClCCCl	-4.9
in ClCCl	-4.98
in Clc1ccccc1	-4.24
in FC(F)(F)C(F)(F)C(F)(F)C(F)(F)C(F)(F)C(F)(F)F	-2.11
in Fc1c(F)c(F)c(F)c(F)c1F	-4.22
in Fc1ccccc1	-4.53
in ICI	-3.76
in Ic1ccccc1	-4.04
in NC=O	-4.73
in Nc1ccccc1	-5.08
in O	-4.03
in O=C1CCCCC1	-5.07
in O=C1CCCO1	-5.44
in O=CN1CCOCC1	-5.28
in OCCO	-4.07
in OCCOCCOCCO	-4.01
in OCc1ccccc1	-4.5
in S=C=S	-3.25
in [2H]O[2H]	-4.01
in c1ccc2ncccc2c1	-4.72
in c1ccc(COCc2ccccc2)cc1	-4.41
in c1ccccc1	-4.5
in c1ccncc1	-5.08

Nc1cccc(Cl)c1
Settings	solvation free energy, 298 K [kcal/mol]
in O	-5.9

COc1ccc(C(c2ccc(OC)cc2)C(Cl)(Cl)Cl)cc1
Settings	solvation free energy, 298 K [kcal/mol]
in O	-6.93

COc1cccc(N)c1
Settings	solvation free energy, 298 K [kcal/mol]
in O	-7.29

CN(C)CCOC(c1ccccc1)c1ccccc1
Settings	solvation free energy, 298 K [kcal/mol]
in O	-9.34

C#CCC
Settings	solvation free energy, 298 K [kcal/mol]
in C1COCCO1	-3
in CC(C)=O	-2.99
in CC(C)CC(C)(C)C	-2.36
in CN(C)C=O	-2.92
in COC(C)=O	-3.03
in O	-0.16

C1COCCN1
Settings	solvation free energy, 298 K [kcal/mol]
in C1COCCO1	-5.72
in O	-7.17

C=C1CCC23CC1C(C)(C)C2CCC3C (centres undefined)
Settings	solvation free energy, 298 K [kcal/mol]
in O	0.8

CCC(C)CC
Settings	solvation free energy, 298 K [kcal/mol]
in C=CCCCCCCCCCCCCCC	-3.42
in CC#N	-2.58
in CCCCCCCCCCCCCCCC	-3.55
in CCCCCO	-3.33
in CCCCO	-3.19
in O	2.47

Cn1cccc1
Settings	solvation free energy, 298 K [kcal/mol]
in O	-2.89

Cc1ccncc1C
Settings	solvation free energy, 298 K [kcal/mol]
in O	-5.22

C#CCCCCC
Settings	solvation free energy, 298 K [kcal/mol]
in C1CCC2CCCCC2C1	-4.37
in C1CCC(C2CCCCC2)CC1	-4.33
in CN(C)C=O	-4.37
in CS(C)=O	-3.95
in N#CCCCCC#N	-3.83
in NCCO	-2.8
in O	0.59
in O=Cc1ccco1	-4.12
in OCc1ccco1	-3.93
in c1ccc2c(c1)CCCC2	-4.66
in c1ccc(C2CCCCC2)cc1	-4.56

CCCCCC=O
Settings	solvation free energy, 298 K [kcal/mol]
in CCCCCCCC	-4.76
in CCCCCCCCCCCCCCCC	-4.52
in CCCCCCCCO	-5.95
in NC=O	-4.02
in O	-2.74
in [2H]O[2H]	-2.75

CCCCCCCCCC(=O)c1c(C)[nH]n(-c2ccccc2)c1=O
Settings	solvation free energy, 298 K [kcal/mol]
in O	-8.46

Clc1cc(Cl)c(-c2ccccc2)cc1Cl
Settings	solvation free energy, 298 K [kcal/mol]
in CCCCCCCCO	-10.6

O=[N+]([O-])c1c(Cl)c(Cl)c(Cl)c(Cl)c1Cl
Settings	solvation free energy, 298 K [kcal/mol]
in CCCCCCCCC=CCCCCCCCC(=O)OCC(COC(=O)CCCCCCCC=CCCCCCCCC)OC(=O)CCCCCCCC=CCCCCCCCC	-10.5

CC(C)CCOC(=O)c1ccccc1C(=O)OCCC(C)C
Settings	solvation free energy, 298 K [kcal/mol]
in O	-6.88

C=C(C)CC(C)(C)C
Settings	solvation free energy, 298 K [kcal/mol]
in CCC(C)=O	-4.34
in O	2.01
in OCCO	-1.42
in OCCOCCO	-2.19
in OCCOCCOCCO	-2.29

CC(C)SC(C)C
Settings	solvation free energy, 298 K [kcal/mol]
in O	-1.21
